≈ marks a conversion by molar mass, not a printed value.
How the values were obtained:
[1] = Half-life in human liver microsomes; type: in vitro ADME; details: human, liver microsomes, NADPH, 37° C., read-out: G: half-life human liver microsomes
Experimental: (§1) Half-life Human Microsomes: Compounds were evaluated for stability in human liver microsomes. A 10 mM stock solution of the compound being evaluated was prepared in DMSO and diluted with water:acetonitrile (1:1) to a concentration of 1 mM. A working concentration of 100 μM was prepared by further dilution with water:acetonitrile (1:1). To make the preincubation mixture, 2.5 μL of the diluted compound was combined with 75 μL of human liver microsomes at 3.33 mg/mL, and 85 μL of 100 mM potassium phosphate buffer, and this mixture was pre-incubated for 10 min at 37° C. To make the 60 minute mixture without cofactor, 32.5 μL of the preincubation mixture was combined with 17.5 μL of 100 mM potassium phosphate buffer and incubated for 60 min at 37° C. To make the 0 min sample with cofactor (NADPH), 16.25 μL of the preincubation mixture was combined with 200 μL of acetonitrile containing internal standard and 8.75 μL of cofactor (NADPH). To make the incubation mixture, 62 μL of cofactor (2.85 mM) was combined with the remaining incubation mixture, and incubated for 60 min at 37° C. To prepare the sample mixture to be evaluated, 25 μL incubation mixture was combined with 200 μL of acetonitrile containing internal standard and vortexed for 5 min at 1200 rpm, then centrifuged for 10 min at 4000 rpm. The supernatant was diluted 2 fold with water and injected on LC-MS/MS. The sample mixture was evaluated by LC-MS/MS using 10 mM ammonium acetate with 0.1% FA as the aqueous mobile phase, and methanol as the organic mobile phase.

[2] = Half-life in mouse liver microsomes; type: in vitro ADME; details: mouse, liver microsomes, read-out: H: half-life of mouse liver microsomes
Experimental: as §1
Half-life Mouse Microsomes: Compounds were evaluated in mouse liver microsomes following a similar procedure as described above for human liver microsomes. A similar procedure could be used to evaluate compounds in rat liver microsomes.

Kinetic solubility = type: physicochemical; details: aqueous buffer, kinetic from dmso stock, pH 7.4 buffer, room temperature, 1.0% DMSO, read-out: I: kinetic solubility class
Experimental: Kinetic Solubility Procedure: A 10 mM stock solution of a compound was prepared in DMSO, then 4 μL of the stock was added to a deep well plate containing 396 μL of pH 7.4 buffer. The sample plate was vortexed at 800 rpm for 24 h on thermomixer at room temperature. The plate was sealed well during the incubation process. The DMSO content in the sample was 1.0%. The concentration of the evaluated compound in the final incubation was 100 μM. At the end of the incubation period, the sample plate was centrifuged at 4000 rpm for 10 min and analyzed in LC-UV against a calibration curve (CC). Values <10 μg/mL=Low; 10 to 60 μg/mL=Medium; >60 μg/mL=High.

With `CC1CC(O)CC(C)N1C(=O)c1ccc(-c2cncc(-c3ccnc(C(C)(C)C)c3)c2)c(Cl)c1` (stereo not drawn) the half-life at 1 µM [1] was 6.33 min, the half-life at 1 µM [2] was 47.8 min and the solubility kinetic at 24 h (Kinetic solubility) was 10 to 60 µg/mL (≈ 20.9 to 126 µM).
For `CC(C)(C)c1cc(-c2cncc(-c3ccc(C(=O)N4CCC(O)(O)C(F)(F)C4)cc3Cl)c2)ccn1`, the half-life at 1 µM [1] was 43.7 min, the half-life at 1 µM [2] was 32.5 min and the solubility kinetic at 24 h (Kinetic solubility) was 10 to 60 µg/mL (≈ 19.9 to 120 µM).
With `O=C(c1ccc(-c2cncc(-c3ccnc(C4(O)CCC4)c3)c2)c(Cl)c1)N1CCC(O)CC1` the half-life at 1 µM [1] was 76.7 min, the half-life at 1 µM [2] was 120 min and the solubility kinetic at 24 h (Kinetic solubility) was 10 to 60 µg/mL (≈ 21.6 to 129 µM).
`CC(C)(C)c1cc(-c2cncc(-c3ccc(C(=O)N(CCCO)CCCO)cc3Cl)c2)ccn1` gave a half-life at 1 µM [1] of 9.51 min, a half-life at 1 µM [2] of 40.4 min and a solubility kinetic at 24 h (Kinetic solubility) of 10 to 60 µg/mL (≈ 20.7 to 124 µM).
In the case of `O=C(c1ccc(-c2cncc(-c3ccnc(C4(F)CCC4)c3)c2)c(Cl)c1)N1CCC(O)CC1`, the half-life at 1 µM [1] was 32.3 min, the half-life at 1 µM [2] was 54.4 min and the solubility kinetic at 24 h (Kinetic solubility) was 10 to 60 µg/mL (≈ 21.5 to 129 µM).
`CC(C)(C)c1cc(-c2cncc(-c3ccc(C(=O)N4CCC(O)C(F)(F)C4)cc3Cl)c2)ccn1` (stereo not drawn) gave a half-life at 1 µM [1] of 28.1 min, a half-life at 1 µM [2] of 88.6 min and a solubility kinetic at 24 h (Kinetic solubility) of 10 to 60 µg/mL (≈ 20.6 to 123 µM).
Compound `CC(C)(C)c1cc(-c2cncc(-c3ccc(C(=O)N4CCC(F)C(O)C4)cc3Cl)c2)ccn1` (stereo not drawn) has a half-life at 1 µM [1] of 12.2 min, a half-life at 1 µM [2] of 21.7 min and a solubility kinetic at 24 h (Kinetic solubility) of 10 to 60 µg/mL (≈ 21.4 to 128 µM).
Work on `CC(C)(C)c1cc(-c2cncc(-c3ccc(C(=O)N4CCC4C(C)(C)O)cc3Cl)c2)ccn1` (stereo not drawn) yielded a half-life at 1 µM [1] of 59 min, a half-life at 1 µM [2] of 38.3 min and a solubility kinetic at 24 h (Kinetic solubility) of 10 to 60 µg/mL (≈ 21.6 to 129 µM).
`CC(C)(C)c1cc(-c2cncc(-c3ccc(C(=O)N4CC(C(C)(C)O)C4)cc3Cl)c2)ccn1` gave a half-life at 1 µM [1] of 7.35 min, a half-life at 1 µM [2] of 12.4 min and a solubility kinetic at 24 h (Kinetic solubility) of 10 to 60 µg/mL (≈ 21.6 to 129 µM).
For `CS(=O)(=O)Nc1ccc(-c2cncc(-c3ccnc(C4CC4)c3)c2)c(Cl)c1`, the half-life at 1 µM [1] was 112 min, the half-life at 1 µM [2] was 86.7 min and the solubility kinetic at 24 h (Kinetic solubility) was less than 10 µg/mL.
Work on `CC(C)OC(=O)Nc1ccc(-c2cncc(-c3ccnc(C4CC4)c3)c2)c(Cl)c1` yielded a half-life at 1 µM [1] of 120 min, a half-life at 1 µM [2] of 81.1 min and a solubility kinetic at 24 h (Kinetic solubility) of less than 10 µg/mL.
For `CC(C)OC(=O)N(C)c1ccc(-c2cncc(-c3ccnc(C(C)(C)C)c3)c2)c(Cl)c1`, the half-life at 1 µM [1] was 63.6 min, the half-life at 1 µM [2] was 105 min and the solubility kinetic at 24 h (Kinetic solubility) was less than 10 µg/mL.
Work on `CC(C)(C)c1cc(-c2cncc(-c3ccc(C(=O)N4CC5(CC(O)C5)C4)cc3Cl)c2)ccn1` yielded a half-life at 1 µM [1] of 1.79 min, a half-life at 1 µM [2] of 120 min and a solubility kinetic at 24 h (Kinetic solubility) of 10 to 60 µg/mL (≈ 21.6 to 130 µM).
`CC(C)(C)c1cc(-c2cncc(-c3ccc(C(=O)N4CCC[C@@H]4CO)cc3Cl)c2)ccn1` gave a half-life at 1 µM [1] of 10.1 min, a half-life at 1 µM [2] of 32 min and a solubility kinetic at 24 h (Kinetic solubility) of 10 to 60 µg/mL (≈ 22.2 to 133 µM).
`CC(C)(C)c1cc(-c2cncc(-c3ccc(C(=O)N4CCC[C@H]4CO)cc3Cl)c2)ccn1` showed a half-life at 1 µM [1] of 5.52 min, a half-life at 1 µM [2] of 28.6 min and a solubility kinetic at 24 h (Kinetic solubility) of 10 to 60 µg/mL (≈ 22.2 to 133 µM).
`CC1(O)CCN(C(=O)c2ccc(-c3cncc(-c4ccnc(C(C)(C)C)c4)c3)c(Cl)c2)C1` (stereo not drawn) showed a half-life at 1 µM [1] of 12.9 min, a half-life at 1 µM [2] of 28 min and a solubility kinetic at 24 h (Kinetic solubility) of 10 to 60 µg/mL (≈ 22.2 to 133 µM).
Work on `CC(C)(C)c1cc(-c2cncc(-c3ccc(C(=O)N4CC[C@H](O)C4)cc3Cl)c2)ccn1` yielded a half-life at 1 µM [1] of 14.4 min, a half-life at 1 µM [2] of 38.7 min and a solubility kinetic at 24 h (Kinetic solubility) of 10 to 60 µg/mL (≈ 22.9 to 138 µM).
`CC(C)(C)c1cc(-c2cncc(-c3ccc(C(=O)N4CC[C@@H](O)C4)cc3Cl)c2)ccn1` showed a half-life at 1 µM [1] of 5.01 min, a half-life at 1 µM [2] of 31.5 min and a solubility kinetic at 24 h (Kinetic solubility) of 10 to 60 µg/mL (≈ 22.9 to 138 µM).
With `CC1(O)CN(C(=O)c2ccc(-c3cncc(-c4ccnc(C(C)(C)C)c4)c3)c(Cl)c2)C1` the half-life at 1 µM [1] was 6.72 min, the half-life at 1 µM [2] was 39.8 min and the solubility kinetic at 24 h (Kinetic solubility) was 10 to 60 µg/mL (≈ 22.9 to 138 µM).
Work on `CC(C)(C)c1cc(-c2cncc(-c3ccc(C(=O)N4CCC(F)CC4)cc3Cl)c2)ccn1` yielded a half-life at 1 µM [1] of 11 min, a half-life at 1 µM [2] of 11 min and a solubility kinetic at 24 h (Kinetic solubility) of less than 10 µg/mL.

Reference: US11718628B2, “SREBP inhibitors comprising a 6-membered central ring” (Capulus Therapeutics, LLC, priority 2018, dated 2023)
